Measured values: patent US20060280697A1, “Composition” (Conopco Inc, d/b/a UNILEVER, priority 2005, published 2006)
Entries after “also recorded” stand apart in the source; their conditions may differ.

Assay: cooling sensation / cooling effect of synthesised compounds

SMILES | cooling effect
O=C1NC(c2cccc([N+](=O)[O-])c2)=CCN1c1ccccc1C(F)(F)F [1-(2′-trifluoromethylphenyl)-4-(3″-nitrophenyl)-1,2,3,6-tetrahydropyrimidine-2-one] | good cooling effects; also recorded: exhibit a cooling effect
O=C1NC(c2ccccc2)=CCN1c1ccccc1O [1-(2′-hydroxyphenyl)-4-phenyl-1,2,3,6-tetrahydropyrimidine-2-one] | good cooling effects; also recorded: exhibit a cooling effect
COc1cccc(C2=CCN(c3ccccc3O)C(=O)N2)c1 [1-(2′-hydroxyphenyl)-4-(3″-methoxyphenyl)-1,2,3,6-tetrahydropyrimidine-2-one] | good cooling effects; also recorded: exhibit a cooling effect
O=C1NC(c2cccc([N+](=O)[O-])c2)=CCN1c1ccccc1 [1-phenyl-4-(3″-nitrophenyl)-1,2,3,6-tetrahydropyrimidine-2-one] | good cooling effects; also recorded: exhibit a cooling effect
